Results from ChEMBL document CHEMBL1201862, “PubChem BioAssay data set” (2004).
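Interpolation was linear, between the two tested concentrations surrounding the appropriate level; five concentrations were tested over 48 hours in 96-well plates. Here, GI50 denotes the concentration required for 50% inhibition of growth.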 Activity calls are given as the source filed them. Cut-off read from the data, not from the text of the source: active = GI50 up to about 1.1 µM and inactive = higher.

Assays:
Test in all cases: NCI-60 cell line screen, 48 h
HL-60 = test system: HL-60
UACC-62 = test system: UACC-62
SK-MEL-28 = test system: SK-MEL-28
Malme-3M = test system: Malme-3M
RPMI-8226 = test system: RPMI-8226
UACC-257 = test system: UACC-257
SN12C = test system: SN12C
NCI-H460 = test system: NCI-H460
KM12 = test system: KM12
OVCAR-4 = test system: OVCAR-4
EKVX = test system: EKVX
SK-MEL-2 = test system: SK-MEL-2
LOX IMVI = test system: LOX IMVI
NCI-H226 = test system: NCI-H226
K562 = test system: K562
HOP-62 = test system: HOP-62
CAKI-1 = test system: CAKI-1
IGROV-1 = test system: IGROV-1
HCC 2998 = test system: HCC 2998

Measured: GI50

CCOC(=O)c1cc(Br)c(-c2cc(C)no2)[nH]1
inactive: HL-60 24.7 µM | UACC-62 35.2 µM | SK-MEL-28 32.4 µM | Malme-3M 20.9 µM | RPMI-8226 13.9 µM | UACC-257 28.1 µM | SN12C 32 µM | NCI-H460 21.1 µM | KM12 10.1 µM | OVCAR-4 23.3 µM | EKVX 34.8 µM | SK-MEL-2 34.4 µM | LOX IMVI 31.3 µM | NCI-H226 31 µM

CCN(CC)c1cccc2c1/C(=N/O)CCCC2
inactive: HL-60 > 100 µM | UACC-62 > 100 µM | SK-MEL-28 > 100 µM | K562 46.8 µM | Malme-3M > 100 µM | HOP-62 > 100 µM | RPMI-8226 56.2 µM | UACC-257 65 µM | SN12C > 100 µM | NCI-H460 74.5 µM | KM12 > 100 µM | OVCAR-4 > 100 µM | EKVX > 100 µM | SK-MEL-2 > 100 µM | LOX IMVI > 100 µM | NCI-H226 > 100 µM

O=[N+]([O-])c1ccc(N2N=C(c3ccc(NCc4nc5ccccc5[nH]4)cc3)CC2c2ccco2)cc1 (configuration not stated)
inactive: CAKI-1 48.6 µM | HL-60 17.6 µM | UACC-62 19.5 µM | SK-MEL-28 37.4 µM | IGROV-1 33 µM | K562 20.4 µM | Malme-3M 28.5 µM | HOP-62 37.2 µM | RPMI-8226 12.4 µM | HCC 2998 30.9 µM | SN12C 20.3 µM | NCI-H460 24.8 µM | KM12 16.7 µM | OVCAR-4 20.2 µM | SK-MEL-2 > 10 µM | LOX IMVI 18.5 µM

C=CCCN1CCc2c([nH]c3ccccc23)C1C(=O)O (configuration not stated)
inactive: CAKI-1 > 100 µM | HL-60 93.1 µM | UACC-62 > 100 µM | SK-MEL-28 > 100 µM | IGROV-1 > 100 µM | K562 > 100 µM | Malme-3M > 100 µM | HOP-62 > 100 µM | UACC-257 > 100 µM | HCC 2998 > 100 µM | SN12C > 100 µM | NCI-H460 > 100 µM | KM12 > 100 µM | OVCAR-4 > 100 µM | EKVX > 100 µM | SK-MEL-2 > 100 µM | LOX IMVI > 100 µM | NCI-H226 89.7 µM

COc1ccc(CCn2cncn2)cc1
inactive: HL-60 > 100 µM | UACC-62 > 100 µM | SK-MEL-28 > 100 µM | IGROV-1 > 100 µM | K562 > 100 µM | HOP-62 > 100 µM | UACC-257 > 100 µM | HCC 2998 > 100 µM | SN12C > 100 µM | NCI-H460 > 100 µM | KM12 > 100 µM | OVCAR-4 > 100 µM | EKVX > 100 µM | NCI-H226 > 100 µM

O=C1c2ccccc2N(O)C1(c1ccccc1)C1CCCC=C1N1CCOCC1 (configuration not stated)
inactive: CAKI-1 > 100 µM | HL-60 50.4 µM | UACC-62 35.8 µM | SK-MEL-28 83.8 µM | IGROV-1 > 100 µM | K562 39.8 µM | HOP-62 > 100 µM | RPMI-8226 17.1 µM | UACC-257 70.6 µM | HCC 2998 > 100 µM | SN12C > 100 µM | NCI-H460 > 100 µM | EKVX 34.7 µM | LOX IMVI 71.1 µM | NCI-H226 69.5 µM

O=C(NCCCl)SCCO
inactive: HL-60 > 100 µM | UACC-62 > 100 µM | SK-MEL-28 > 100 µM | IGROV-1 > 100 µM | K562 > 100 µM | Malme-3M > 100 µM | HOP-62 > 100 µM | RPMI-8226 > 100 µM | UACC-257 > 100 µM | HCC 2998 > 100 µM | SN12C > 100 µM | NCI-H460 > 100 µM | KM12 > 100 µM | OVCAR-4 > 100 µM | EKVX > 100 µM | SK-MEL-2 > 100 µM | NCI-H226 > 100 µM

CC(=O)Nc1ccc(C(=O)NN2C(=O)C(Cl)/C2=C/c2ccco2)cc1 (configuration not stated)
inactive: HL-60 > 100 µM | UACC-62 > 100 µM | SK-MEL-28 > 100 µM | IGROV-1 > 100 µM | K562 > 100 µM | Malme-3M > 100 µM | HOP-62 > 100 µM | RPMI-8226 > 100 µM | UACC-257 > 100 µM | HCC 2998 > 100 µM | NCI-H460 > 100 µM | KM12 > 100 µM | SK-MEL-2 > 100 µM | NCI-H226 > 100 µM

N#C/C(=C\c1cc(O)cc(O)c1)C(N)=O
inactive: CAKI-1 > 100 µM | HL-60 > 10 µM | UACC-62 > 100 µM | SK-MEL-28 > 100 µM | IGROV-1 > 100 µM | K562 > 100 µM | Malme-3M > 100 µM | HOP-62 > 100 µM | RPMI-8226 > 100 µM | UACC-257 > 100 µM | HCC 2998 > 100 µM | SN12C > 100 µM | NCI-H460 > 100 µM | KM12 80.5 µM | OVCAR-4 > 100 µM | EKVX > 100 µM | SK-MEL-2 > 100 µM | NCI-H226 > 100 µM

CC(=O)OC1CC2Oc3ccc(C)cc3C(C)(O2)C1=O (configuration not stated)
inactive: HL-60 > 100 µM | UACC-62 > 100 µM | SK-MEL-28 > 100 µM | IGROV-1 > 100 µM | K562 > 100 µM | Malme-3M > 100 µM | HOP-62 > 100 µM | RPMI-8226 > 100 µM | UACC-257 > 100 µM | SN12C > 100 µM | NCI-H460 > 100 µM | KM12 > 100 µM | EKVX > 100 µM | LOX IMVI > 100 µM | NCI-H226 > 100 µM

Nc1nc(CCC(=O)Nc2cccc(C(F)(F)F)c2)cc(-c2ccc3ccccc3c2)n1
inactive: CAKI-1 > 100 µM | HL-60 > 100 µM | UACC-62 > 100 µM | SK-MEL-28 > 100 µM | IGROV-1 > 100 µM | K562 > 100 µM | Malme-3M > 100 µM | HOP-62 > 100 µM | RPMI-8226 > 100 µM | UACC-257 > 100 µM | HCC 2998 > 100 µM | SN12C > 100 µM | NCI-H460 > 100 µM | KM12 > 100 µM | OVCAR-4 > 100 µM | EKVX > 100 µM | SK-MEL-2 > 100 µM | NCI-H226 > 100 µM

O=C1C(Cl)N(c2ccccc2[N+](=O)[O-])C1c1c[nH]c2ccccc12 (configuration not stated)
inactive: HL-60 > 100 µM | UACC-62 > 100 µM | SK-MEL-28 > 100 µM | IGROV-1 > 100 µM | K562 > 100 µM | Malme-3M 94.4 µM | HOP-62 > 100 µM | RPMI-8226 > 100 µM | UACC-257 > 100 µM | SN12C > 100 µM | NCI-H460 > 100 µM | KM12 > 100 µM | OVCAR-4 > 100 µM | EKVX 83.6 µM | SK-MEL-2 > 100 µM

COC1(OC)CCC2C1C1CCC(OC)(OC)C21 (configuration not stated)
inactive: CAKI-1 > 50 µM | HL-60 > 50 µM | UACC-62 > 50 µM | SK-MEL-28 > 50 µM | IGROV-1 > 50 µM | K562 > 50 µM | Malme-3M > 50 µM | HOP-62 > 50 µM | RPMI-8226 > 50 µM | UACC-257 > 50 µM | HCC 2998 > 50 µM | SN12C > 50 µM | KM12 > 50 µM | OVCAR-4 > 50 µM | EKVX > 50 µM | SK-MEL-2 > 50 µM | NCI-H226 > 50 µM
